# Experiments:
# Format in all cases: biochemical
# JARID1C (KDM5C) = biological target: T1, JARID1C (KDM5C) (Homo sapiens, UniProt P41229); test: Histone lysine demethylase AlphaLISA assay, JARID1C; settings: substrate H3K4M3B
# T1 construct: 2-1560; purchased BPS; host or cells: Bac (baculovirus)
# Procedure: (§1) Example 2: Histone Lysine Demethylase AlphaLISA Assays for IC50 Value Determination
# (§2) Assays are performed analogously to the protocol described by Perkin Elmer (Roy et al. Perkin Elmer Technical Note: AlphaLISA #12, April 2011).
# (§3) Enzymes are dissolved in enzyme buffer and incubated for 10 min before 5 μL is added to 5 μL 3% DMSO solutions of compounds in enzyme buffer. Incubated for another 10 minutes, before 5 μL substrate solution is added and the reaction mixture is incubated at room temperature for the given period. 10 μL acceptor beads, suspended at given dilutions in Epigenetic Buffer (Perkin Elmer AL008) from stock, are added and the suspension is incubated 60 minutes in the dark at room temperature, before 10 μL suspension (at the given dilutions in Epigenetic Buffer) of streptavidin donor beads (Perkin Elmer 6760002) in Epigenetic Buffer is added. After incubation at room temperature in the dark the plates are read. Reaction conditions are seen in Table 2b.
# UTX (KDM6A) = biological target: T2, UTX (KDM6A) (Homo sapiens, UniProt O15550); test: Histone lysine demethylase AlphaLISA assay, UTX; settings: substrate BK27M3
# T2 construct: 919-1401; host or cells: E. coli
# T2 sequence (O15550 919-1401): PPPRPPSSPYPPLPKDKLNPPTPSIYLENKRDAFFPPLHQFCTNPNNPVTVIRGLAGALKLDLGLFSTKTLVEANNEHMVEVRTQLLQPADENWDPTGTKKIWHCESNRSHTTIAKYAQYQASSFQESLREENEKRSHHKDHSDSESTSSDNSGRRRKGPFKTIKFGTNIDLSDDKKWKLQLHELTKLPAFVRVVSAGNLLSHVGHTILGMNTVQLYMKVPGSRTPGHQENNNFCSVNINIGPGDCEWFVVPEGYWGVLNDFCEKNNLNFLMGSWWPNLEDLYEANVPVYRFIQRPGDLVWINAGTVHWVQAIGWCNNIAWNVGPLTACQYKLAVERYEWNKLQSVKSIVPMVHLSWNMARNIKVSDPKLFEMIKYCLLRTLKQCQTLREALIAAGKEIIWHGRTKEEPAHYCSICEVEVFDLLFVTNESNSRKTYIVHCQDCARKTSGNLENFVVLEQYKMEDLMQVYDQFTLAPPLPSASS
# Procedure, shortened: (§4)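 Enzyme was preincubated 10 min, then 10 min with compounds in 3% DMSO buffer before substrate addition; reaction ran at room temperature. AlphaLISA acceptor beads (60 min, dark) and streptavidin donor beads were added before reading for IC50.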
# FBXL10 (KDM2B) = biological target: T3, FBXL10 (KDM2B) (Homo sapiens, UniProt Q8NHM5); test: Histone lysine demethylase AlphaLISA assay, FBXL10; settings: substrate BH3K36M2
# T3 construct: 1-650; purchased BPS, Bioscience, US; host or cells: Bac (baculovirus)
# T3 sequence (Q8NHM5 1-650): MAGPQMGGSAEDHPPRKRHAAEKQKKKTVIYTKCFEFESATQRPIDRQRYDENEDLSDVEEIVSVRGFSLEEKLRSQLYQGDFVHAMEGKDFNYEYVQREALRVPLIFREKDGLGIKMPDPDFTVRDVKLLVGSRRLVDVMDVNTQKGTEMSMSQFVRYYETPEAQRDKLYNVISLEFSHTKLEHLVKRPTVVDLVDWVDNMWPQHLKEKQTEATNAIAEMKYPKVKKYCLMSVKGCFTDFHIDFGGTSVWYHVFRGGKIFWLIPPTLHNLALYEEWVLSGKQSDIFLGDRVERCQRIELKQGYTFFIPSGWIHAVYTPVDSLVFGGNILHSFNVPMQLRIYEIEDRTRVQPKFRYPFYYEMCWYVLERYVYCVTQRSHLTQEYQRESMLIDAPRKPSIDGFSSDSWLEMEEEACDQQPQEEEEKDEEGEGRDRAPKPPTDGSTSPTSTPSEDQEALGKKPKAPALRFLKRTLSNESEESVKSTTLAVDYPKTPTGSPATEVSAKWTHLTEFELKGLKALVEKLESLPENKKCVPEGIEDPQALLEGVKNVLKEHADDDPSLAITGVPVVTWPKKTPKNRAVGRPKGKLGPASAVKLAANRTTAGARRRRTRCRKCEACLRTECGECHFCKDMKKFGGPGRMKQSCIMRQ
# Procedure: as §1, §2, §3
# JMJD2B (KDM4B) = biological target: T4, JMJD2B (KDM4B) (Homo sapiens, UniProt O94953); test: Histone lysine demethylase AlphaLISA assay, JMJD2B; settings: substrate BK9M3, read-out: JMUD2B IC50
# T4 construct: 2-500; purchased BPS; host or cells: Bac (baculovirus)
# T4 sequence (O94953 2-500): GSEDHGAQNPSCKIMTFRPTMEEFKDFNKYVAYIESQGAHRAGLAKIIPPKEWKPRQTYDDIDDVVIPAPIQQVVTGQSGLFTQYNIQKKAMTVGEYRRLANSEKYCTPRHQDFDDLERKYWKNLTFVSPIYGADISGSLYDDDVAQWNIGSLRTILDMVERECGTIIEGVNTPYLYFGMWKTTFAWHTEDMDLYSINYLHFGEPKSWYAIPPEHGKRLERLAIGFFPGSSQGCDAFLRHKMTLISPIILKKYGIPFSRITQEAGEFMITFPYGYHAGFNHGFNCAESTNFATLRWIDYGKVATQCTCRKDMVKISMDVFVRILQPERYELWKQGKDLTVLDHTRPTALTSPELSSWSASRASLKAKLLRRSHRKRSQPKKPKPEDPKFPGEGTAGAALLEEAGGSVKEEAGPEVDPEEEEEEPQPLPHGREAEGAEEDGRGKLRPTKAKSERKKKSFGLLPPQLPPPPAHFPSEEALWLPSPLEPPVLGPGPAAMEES
# Procedure: as §1, §2, §3
# PLU1 (KDM5B) = biological target: T5, PLU1 (KDM5B) (Homo sapiens, UniProt Q9UGL1); test: Histone lysine demethylase AlphaLISA assay, PLU1; settings: substrate H3K4M3B
# T5 construct: 1-809; host or cells: E. coli
# T5 sequence (Q9UGL1 1-809): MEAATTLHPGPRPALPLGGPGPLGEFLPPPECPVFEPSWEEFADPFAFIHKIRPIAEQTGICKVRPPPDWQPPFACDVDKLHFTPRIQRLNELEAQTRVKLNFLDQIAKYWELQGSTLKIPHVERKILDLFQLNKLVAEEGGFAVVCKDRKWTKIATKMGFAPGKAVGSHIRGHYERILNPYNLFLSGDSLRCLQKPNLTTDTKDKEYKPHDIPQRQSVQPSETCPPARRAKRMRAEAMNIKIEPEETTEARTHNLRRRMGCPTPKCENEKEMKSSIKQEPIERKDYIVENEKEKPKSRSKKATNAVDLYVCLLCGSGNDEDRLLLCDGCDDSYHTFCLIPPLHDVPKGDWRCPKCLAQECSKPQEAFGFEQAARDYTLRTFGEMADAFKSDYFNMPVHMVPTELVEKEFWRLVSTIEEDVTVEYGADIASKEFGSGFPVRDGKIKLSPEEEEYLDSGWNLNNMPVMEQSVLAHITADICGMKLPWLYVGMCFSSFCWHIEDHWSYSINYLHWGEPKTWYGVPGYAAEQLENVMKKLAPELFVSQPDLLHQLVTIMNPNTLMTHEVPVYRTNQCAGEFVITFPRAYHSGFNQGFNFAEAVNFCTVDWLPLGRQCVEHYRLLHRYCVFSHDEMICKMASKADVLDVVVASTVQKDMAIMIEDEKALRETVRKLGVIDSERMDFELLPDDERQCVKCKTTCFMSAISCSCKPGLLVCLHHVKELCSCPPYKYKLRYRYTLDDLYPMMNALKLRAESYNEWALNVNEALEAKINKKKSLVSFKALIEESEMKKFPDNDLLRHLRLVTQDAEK
# Procedure, shortened: as §4
# T1 sequence (P41229 2-1560): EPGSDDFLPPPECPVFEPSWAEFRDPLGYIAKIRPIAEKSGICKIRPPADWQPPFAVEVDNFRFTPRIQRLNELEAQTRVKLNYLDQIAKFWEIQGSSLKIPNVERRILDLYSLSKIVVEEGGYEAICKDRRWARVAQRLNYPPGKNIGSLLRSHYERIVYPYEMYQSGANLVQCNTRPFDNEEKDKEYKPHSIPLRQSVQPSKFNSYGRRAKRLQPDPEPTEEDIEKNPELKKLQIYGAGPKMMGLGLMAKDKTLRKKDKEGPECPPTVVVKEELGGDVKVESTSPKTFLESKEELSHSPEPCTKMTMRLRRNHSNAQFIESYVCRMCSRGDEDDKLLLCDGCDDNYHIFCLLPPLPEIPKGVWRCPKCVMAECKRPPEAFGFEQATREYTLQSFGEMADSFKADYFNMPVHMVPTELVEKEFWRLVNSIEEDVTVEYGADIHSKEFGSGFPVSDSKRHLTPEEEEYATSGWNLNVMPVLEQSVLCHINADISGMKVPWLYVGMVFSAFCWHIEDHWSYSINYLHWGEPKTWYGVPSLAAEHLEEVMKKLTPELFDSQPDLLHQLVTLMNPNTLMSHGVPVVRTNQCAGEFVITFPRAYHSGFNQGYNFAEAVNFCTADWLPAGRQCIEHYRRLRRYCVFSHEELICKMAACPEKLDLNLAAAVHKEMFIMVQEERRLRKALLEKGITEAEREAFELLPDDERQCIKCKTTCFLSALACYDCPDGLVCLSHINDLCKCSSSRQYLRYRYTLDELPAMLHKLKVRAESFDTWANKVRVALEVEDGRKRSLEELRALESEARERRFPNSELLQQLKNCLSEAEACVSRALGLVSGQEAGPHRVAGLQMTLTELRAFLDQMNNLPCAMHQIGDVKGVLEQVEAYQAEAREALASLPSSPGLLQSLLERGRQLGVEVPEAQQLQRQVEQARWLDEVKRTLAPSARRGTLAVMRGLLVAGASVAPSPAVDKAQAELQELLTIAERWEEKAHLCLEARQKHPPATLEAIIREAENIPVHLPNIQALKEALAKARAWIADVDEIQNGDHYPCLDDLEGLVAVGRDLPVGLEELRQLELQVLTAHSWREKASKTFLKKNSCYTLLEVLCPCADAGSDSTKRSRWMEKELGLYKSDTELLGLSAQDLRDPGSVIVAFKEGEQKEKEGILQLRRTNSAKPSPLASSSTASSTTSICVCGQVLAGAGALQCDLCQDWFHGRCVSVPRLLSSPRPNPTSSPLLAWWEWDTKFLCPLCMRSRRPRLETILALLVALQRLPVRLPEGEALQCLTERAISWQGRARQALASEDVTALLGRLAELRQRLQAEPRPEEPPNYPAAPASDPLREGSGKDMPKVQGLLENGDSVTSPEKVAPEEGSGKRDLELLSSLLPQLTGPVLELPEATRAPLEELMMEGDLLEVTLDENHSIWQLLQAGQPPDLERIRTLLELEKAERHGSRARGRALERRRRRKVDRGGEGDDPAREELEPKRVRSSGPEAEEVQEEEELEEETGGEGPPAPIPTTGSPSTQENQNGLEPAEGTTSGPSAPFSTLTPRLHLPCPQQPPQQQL
IC50 (JARID1C (KDM5C)) [µM],IC50 (UTX (KDM6A)) [µM],IC50 (FBXL10 (KDM2B)) [µM],IC50 (JMJD2B (KDM4B)) [µM],IC50 (PLU1 (KDM5B)) [µM],Compound
< 0.1,≥ 1,,< 0.1,< 0.1,"CCCCN1CCCC1CCNCc1cc(C(=O)O)ccn1 (centres unmarked) [#34, 2-({[2-(1-butylpyrrolidin-2-yl)ethyl]amino}methyl)pyridine-4-carboxylic acid]"
< 0.1,≥ 1,< 0.1,< 0.1,< 0.1,"CCCCN(C)C(=O)CNCc1cc(C(=O)O)ccn1 [#14, 2-[({[butyl(methyl)carbamoyl]methyl}amino)methyl]pyridine-4-carboxylic acid]"

# Further lines, the compound ahead of its results:
Compound,IC50 (JARID1C (KDM5C)) [µM],IC50 (UTX (KDM6A)) [µM],IC50 (FBXL10 (KDM2B)) [µM],IC50 (JMJD2B (KDM4B)) [µM],IC50 (PLU1 (KDM5B)) [µM]
"CCN(CCN(C)C)C(=O)CNCc1cc(C(=O)O)ccn1 [#49, 2-{[({[2-(dimethylamino)ethyl](ethyl)carbamoyl}methyl)amino]methyl}pyridine-4-carboxylic acid]",< 0.1,≥ 1,0.1 to 1,< 0.1,< 0.1
2-({[(1R)-2-hydroxy-1-{methyl[3-(1-methyl-1H-imidazol-2-yl)propyl]carbamoyl}ethyl]amino}methyl)pyridine-4-carboxylic acid [#37],0.1 to 1,≥ 1,≥ 1,< 0.1,
"COc1ccccc1CN1CCC(NC(=O)CNCc2cc(C(=O)O)ccn2)CC1 [#29, 2-({[({1-[(2-methoxyphenyl)methyl]piperidin-4-yl}carbamoyl)methyl]amino}methyl)pyridine-4-carboxylic acid]",< 0.1,,< 0.1,< 0.1,< 0.1
"O=C(O)c1ccnc(CNCC(=O)N2CCCC2)c1 [#13, 2-({[2-oxo-2-(pyrrolidin-1-yl)ethyl]amino}methyl)pyridine-4-carboxylic acid]",< 0.1,≥ 1,< 0.1,< 0.1,< 0.1
"CC(C)=CCCC(C)CCN1CCC(NC(=O)CNCc2cc(C(=O)O)ccn2)C1 (centres unmarked) [#35, 2-{[({[1-(3,7-dimethyloct-6-en-1-yl)pyrrolidin-3-yl]carbamoyl}methyl)amino]methyl}pyridine-4-carboxylic acid]",< 0.1,≥ 1,0.1 to 1,< 0.1,< 0.1

# Reference: US10221139B2, “Inhibitors of histone demethylases” (Gilead Sciences, Inc., priority 2012, dated 2019)
